In patent US20220370368A1, “ORAL PHARMACEUTICAL COMPOSITION COMPRISING A MELT-AGGLOMERATED ACTIVE INGREDIENT CORE” (Hermes Pharma GmbH, priority 2019, published 2022) one finds Angle of repose data, which are given here for one compound.

A short description of the data set: Angle of repose according to Ph.Eur. chapter 2.9.36. Conditions: prior to agglomeration. Type of data set: physicochemical. The text has this: Any flow property provisions such as “passable”, “poor” or “very poor” as used herein shall be understood as flow properties measured and ranked according to pharmacopoeial standards (e.g. European Pharmacopoeia, 6th edition, chapter 2.9.36) unless where specified otherwise: […]

As for `CN(C)CCOC(c1ccccc1)c1ccccc1.Cn1c(=O)c2[nH]c(Cl)nc2n(C)c1=O` [Dimenhydrinate], the Angle of repose worked out at 52 °.
